Measured values as given in patent US20260193255A1, “7-AZAINDOLE COMPOUNDS, PREPARATION METHOD THEREFOR, AND USE THEREOF” (Fudan University, priority 2022, published 2026).

Experiments:
[1] = tested on: C26 tumor cancer cachexia model, BALB/c mice; assay: Cancer cachexia animal model, compounds 3 and 10 (C26 tumor, BALB/c mice, 10 mg/kg ip); type: in vivo, mouse; details: 10 mg/kg ip daily; for Cross-sectional area of gastrocnemius fibers: H&E sections; for Muscle grasp force: p<0.05
Protocol: C26 cells were inoculated in T75 flasks. The culture system was 1640 medium containing 10% FBS with 1% penicillin-streptomycin. The flasks were placed in a 5% CO2, 37° C. environment for expansion culture. The cells were collected by centrifugation at 1000 rpm for 3 mins, and the culture medium was washed away with ice-cold PBS buffer, and a cell suspension of 10 million/ml was prepared. The cell suspension was inoculated into the left and right armpits of BALB/c mice at a concentration of 1 million for tumor development. When the tumor volume increased to 1000 mm^3, the tumor was removed and homogenized with 3 ml of ice saline/g to obtain a tumor tissue suspension. The mice to be inoculated were divided into groups according to their weight, and the cell suspension was inoculated into the left armpit of BALB/c mice at an inoculation volume of 100 μl per mouse. Treatment was started from the day after inoculation. Compounds 3 and 10 were dissolved in 3% DMSO, 2% Solutol and 95% saline in sequence to form a uniform solution with the required concentration. The solution was prepared and used daily. The dose was 10 mg/kg and the compound was administered by intraperitoneal injection (ip). The body weight, temperature, tumor size and food intake of mice were monitored daily. […] In the middle stage of the experiment, the weight of the mice in the model group began to decrease, which was considered to have entered the mid-cachexia stage. When the tumor volume of the mice in the model group reached 2.0× 103 mm^3 or their body weight decreased by 10%, they were considered to have entered the late-cachexia stage. The muscle grasp force of the mice's forelimbs was tested at these three stages. At the end of the experiment, the mice were killed by cervical dislocation and the gastrocnemius, tibialis anterior, right hind limb and tumor samples were obtained, and the sample weights were measured. Gastrocnemius tissue of appropriate size was obtained, and H&E stained tissue sections were prepared through processes such as fixation, embedding, slicing, staining. At least 10 fields of view were randomly selected for slices of different groups for photographing, and the cross-sectional areas of all muscle fibers in the photographs were measured and statistically analyzed.
(§1) The method for detecting muscle grasp force was as follows: The muscle grasp force of mice was tested on the 3rd day (pre-cachexia stage), the 11th day (mid-cachexia stage) and the 16th day (late-cachexia stage) of the experiment. The mouse was steadily placed on the YLS-13A Mouse and Rat Grasp Force Tester by using the right hand, so that its forelimbs could tightly grasp the gripping disk, and the gripping disk was stabilized by using the left hand moving forward. When the left hand slowly released the gripping disk, the right hand immediately and slowly pulled the mouse's tail backwards until its forelimbs were separated from the gripping disk. The test was repeated 8 times for each mouse, and the mean value of the 8 measurements was used as the skeletal muscle strength index of each mouse.

[2] = biological target: ActRIIB (Homo sapiens, UniProt Q13705); assay: ActRIIB inhibitory activity, ADP-Glo assay kit; type: biochemical; details: ATP 25 μM, substrate 0.1 mg/mL, ActRIIB 20.0 ng/μL
Protocol: The ATP and substrate concentrations recommended by the ADP-Glo™ assay kit were used, which were 25 μM and 0.1 mg/mL, respectively, and a series of isocratic final ActRIIB concentrations were set up, which were 0, 0.47, 0.94, 1.88, 3.75, 7.5, 15, 30, and 60 ng/μL, respectively. According to the […] values obtained in the experiment, an ActRIIB concentration titration curve was drawn. The ActRIIB concentrations corresponding to the ratio of the signal value to the background value (i.e., signal-to-background ratio, SBR) in the range of 5-10 times are suitable for screening compounds for inhibition of ActRIIB activity. From the ActRIIB concentration titration curve, the final ActRIIB concentrations corresponding to SB5 and SB10 were calculated to be 14.9 and 23.7 ng/μL, respectively. Finally, a final concentration of 20.0 ng/μL was selected as the experimental concentration for screening compounds for their inhibitory activity against ActRIIB. The inhibitory efficiency of 7-azaindole compounds on ActRIIB was detected at concentrations of 0.1, 1, 10, and 100 nM, respectively.

[3] = tested on: mouse myoblasts (C2C12); assay: Atrophy of mouse myoblasts (C2C12) induced by C26 cell supernatant, myotube diameter by HE staining; type: cell-based; details: Mus musculus, 48 hours treatment, C26 supernatant-induced C2C12 myotubes, read-out: Myotube atrophy reversal rate
Protocol: C2C12 cells were inoculated in 24-well plates. The culture system was high-glucose DMEM medium containing 10% FBS with 1% penicillin-streptomycin. The plates were placed in a 5% CO2, 37° C. environment. When the cell growth density reached 50%-60%, the culture system was replaced with high-glucose DMEM culture medium containing 2% HS with 1% penicillin-streptomycin. Fresh 2% HS differentiation medium was replaced every 48 hours, and the cells were differentiated into mature cells on the 5th or 6th day. Additionally, C26 cells were inoculated in T75 flasks. The culture system was high-glucose DMEM medium containing 10% FBS with 1% penicillin-streptomycin. The flasks were placed in a 5% CO2, 37° C. environment. When subculturing, the cells were subcultured at 6 million cells/flask. After culturing in 20 ml of culture medium for 48 hours, the supernatant was collected and centrifuged at 1000 rpm for 3 mins. The supernatant was collected and centrifuged at 4000 rpm for 10 mins to obtain the C26 supernatant. The C26 supernatant and 2% HS differentiation solution were mixed at a ratio of 1:1 (volume ratio) as the muscle atrophy induction solution. Except for the control group in which 2% HS differentiation solution was added, for the other groups, an equivalent amount of muscular atrophy induction solution was added. One group was used as the model group, and the other groups were used as the treatment and experimental groups.
The diameter of myotubes after differentiation of mouse myoblasts (C2C12) was evaluated by using the diameter measurement method. The method for measuring the diameter of myotubes was as follows: after 48 hours of treatment, the myotubes were fixed with a fixative (anhydrous ethanol: formaldehyde: glacial acetic acid (volume ratio)=20:2:1) for more than 1 h and stained. The staining method used in the experiment is hematoxylin-eosin staining, referred to as HE staining for short. Hematoxylin stain is alkaline and positively charged, and it can easily bind to the negatively charged and acidic deoxyribonucleic acid (DNA) in the cell nucleus through ionic bonds to stain it blue; eosin is an acidic dye that dissociates into negatively charged anions in water, and it can easily bind to the positively charged amino groups of proteins in the cytoplasm to stain it red. The stained cells were placed under a high-power microscope to take pictures (magnification: 200 times), and the diameter of myotube cells was statistically analyzed using image J software. The muscle atrophy reversal rate was calculated according to the following formula: Muscle atrophy reversal rate=(average value of myotubes in the treatment group-average value of myotubes in the model group)/(average value of myotubes in the control group-average value of myotubes in the model group)×100%

[4] = tested on: C26 tumor cancer cachexia model, BALB/c mice; assay: Cancer cachexia animal model, compound 2 (C26 tumor, BALB/c mice, 5 mg/kg ig); type: in vivo, mouse; details: 5 mg/kg ig daily
Protocol: C26 cells were inoculated in T75 flasks. The culture system was 1640 medium containing 10% FBS with 1% penicillin-streptomycin. The flasks were placed in a 5% CO2, 37° C. environment for expansion culture. The cells were collected by centrifugation at 1000 rpm for 3 mins, and the culture medium was washed away with ice-cold PBS buffer, and a cell suspension of 10 million/ml was prepared. The cell suspension was inoculated into the left and right armpits of BALB/c mice at a concentration of 1 million for tumor development. When the tumor volume increased to 1000 mm^3, the tumor was removed and homogenized with 3 ml of ice saline/g to obtain a tumor tissue suspension. The mice to be inoculated were divided into groups according to their weight, and the cell suspension was inoculated into the left armpit of Balb/c mice at an inoculation volume of 100 μl per mouse. Treatment was started from the day after inoculation. Compound 2 was dissolved in 3% DMSO, 2% Solutol and 95% saline in sequence to form a uniform solution with the required concentration. The solution was prepared and used daily. The dose was 5 mg/kg and the compound was administered by the intragastric (ig) route. The body weight, temperature, tumor size and food intake of mice were monitored daily. […] When the tumor volume of mice in the model group reached 2.0× 103 mm^3 or their body weight decreased by 10%, they were considered to have entered the cachexia stage. The muscle grasp force of the mice's forelimbs was tested at these two stages. […] At the end of the experiment, the mice were killed by cervical dislocation and the gastrocnemius, tibialis anterior, right hind limb and tumor samples were obtained, and the sample weights were measured.
as §1, with “5th” for “3rd”, “(pre-cachexia” for “(pre-cachexia stage), the 11th day (mid-cachexia”, “22nd” for “16th”, “(cachexia” for “(late-cachexia”

ActRIIB, sequence (Q13705 19-512): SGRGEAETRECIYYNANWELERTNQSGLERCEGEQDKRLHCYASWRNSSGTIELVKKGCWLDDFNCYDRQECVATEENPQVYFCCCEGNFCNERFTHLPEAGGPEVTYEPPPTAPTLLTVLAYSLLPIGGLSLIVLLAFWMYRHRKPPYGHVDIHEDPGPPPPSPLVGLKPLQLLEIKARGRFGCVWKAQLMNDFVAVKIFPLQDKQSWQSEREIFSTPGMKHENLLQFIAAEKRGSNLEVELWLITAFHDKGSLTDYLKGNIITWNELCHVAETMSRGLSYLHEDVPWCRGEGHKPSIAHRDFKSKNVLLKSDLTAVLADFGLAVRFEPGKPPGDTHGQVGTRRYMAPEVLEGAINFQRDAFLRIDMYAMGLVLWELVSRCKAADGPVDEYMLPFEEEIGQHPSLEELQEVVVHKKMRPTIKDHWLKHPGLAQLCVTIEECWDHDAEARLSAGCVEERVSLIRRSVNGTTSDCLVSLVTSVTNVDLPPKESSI

## c1cc(-c2c[nH]c3ncc(-c4ccc(OCCN5CCOCC5)cc4)cc23)n[nH]1 [Compound 10, 3-(1H-pyrazol-3-yl)-5-(4-[[2-(1,4-oxazacyclohexan-4-yl)ethyl]oxy]phenyl)-1H-pyrrolo[2,3-b]pyridine]
[1]
  Average accumulative food intake vs C26 tumor model group: slightly higher than that in the C26 tumor model group
  Gastrocnemius atrophy (muscle mass): cannot significantly alleviate the gastrocnemius atrophy in cachectic mice
  Right hind limb weight (skeletal muscle atrophy): improve skeletal muscle atrophy in cachectic mice to a certain extent
  Tibialis anterior atrophy (muscle mass): cannot significantly alleviate the tibialis anterior atrophy in cachectic mice
  Tumor volume vs C26 tumor model group: slightly reduced compared with the C26 tumor model group, but there was no significant difference
  Weight loss (tumor-bearing and tumor-free body weight) vs C26 tumor model group: significantly alleviate the weight loss of mice
  Cross-sectional area of gastrocnemius fibers: significantly alleviate the reduction in the cross-sectional area of the gastrocnemius in cachectic mice
  Muscle grasp force: significantly enhance the muscle grasp force of cachexia mice
[2]
  IC50: 4 nM
[3]
  inhibition at 1.25 µM: 42.4%
  inhibition at 2.5 µM: 58.9%
  inhibition at 5 µM: 100%

## CN1CCN(c2ccc(-c3cnc4[nH]cc(-c5cc[nH]n5)c4c3)cc2)CC1 [Compound 2, 3-(1H-pyrazol-3-yl)-5-[4-(4-methylpiperazin-1-yl)phenyl]-1H-pyrrolo[2,3-b]pyridine]
[2]
  IC50: 1.8 nM
[4]
  Average accumulative food intake vs C26 tumor model group: slightly higher than that in the C26 tumor model group
  Right hind limb weight (skeletal muscle atrophy): improve skeletal muscle atrophy in cachectic mice to a certain extent
  Tumor volume vs C26 tumor model group: slightly reduced compared with the C26 tumor model group, but there was no significant difference
[4]; cachexia stage, p=0.06
  Muscle grasp force: significantly enhance the muscle grasp force of cachexia mice
[4]; p<0.05
  Gastrocnemius mass (gastrocnemius atrophy): significantly alleviate the gastrocnemius atrophy in cachectic mice
  Tibialis anterior mass (tibialis anterior atrophy): significantly alleviate the tibialis anterior atrophy in cachectic mice
[4]; p<0.05 at end of experiment
  Weight loss (tumor-bearing and tumor-free body weight) vs C26 tumor model group: significantly alleviate the weight loss of mice
[3]
  inhibition at 1.25 µM: 69.2%
  inhibition at 2.5 µM: 97.6%
  inhibition at 5 µM: 131%

## CN1CCN(c2ccc(-c3cnc4[nH]cc(-c5ccc6[nH]ccc6c5)c4c3)cc2)CC1 [Compound 3, 3-(1H-indol-5-yl)-5-[4-(4-methylpiperazin-1-yl)phenyl]-1H-pyrrolo[2,3-b]pyridine]
[1]
  Average accumulative food intake vs C26 tumor model group: slightly higher than that in the C26 tumor model group
  Gastrocnemius atrophy (muscle mass): cannot significantly alleviate the gastrocnemius atrophy in cachectic mice
  Right hind limb weight (skeletal muscle atrophy): improve skeletal muscle atrophy in cachectic mice to a certain extent
  Tibialis anterior atrophy (muscle mass): cannot significantly alleviate the tibialis anterior atrophy in cachectic mice
  Tumor volume vs C26 tumor model group: slightly reduced compared with the C26 tumor model group, but there was no significant difference
  Weight loss (tumor-bearing and tumor-free body weight) vs C26 tumor model group: alleviate the weight loss of mice to some extent
  Cross-sectional area of gastrocnemius fibers: significantly alleviate the reduction in the cross-sectional area of the gastrocnemius in cachectic mice
  Muscle grasp force: significantly enhance the muscle grasp force of cachexia mice
[2]
  IC50: 1.1 nM
[3]
  inhibition at 2.5 µM: 90.9%
